{"source": "the NIST ThermoML archive (doi:10.1016/j.jct.2009.07.010)", "conditions": "298.15 K; 101.33 kPa; Liquid; Vibrating tube method", "note": "± gives the expanded uncertainty stated by the source.", "data": [{"smiles": "CCn1cc[n+](C)c1.O=S(=O)([O-])C(F)(F)F", "note": "[1-ethyl-3-methylimidazolium trifluoromethanesulfonate]", "values": [{"measurement": "mass density", "value": "1387.07 ± 2.2", "unit": "kg/m3"}]}]}
